Results on 1 substance are retold here after US20070179113A1, “GM-CSF gene therapy for Crohn's disease using an improved regulated expression system” (Schering Aktiengesellachaft, priority 2005, published 2007).

Experiment [1] has as its system Mx1 RNA in murine L929 cells. The experiment in a line: Mx1 RNA induction in vitro in L929 cells (TaqMan RT-PCR). Format: cell-based. As to the method: FIG. 5 illustrates Mx1 RNA induction in vitro (in L929 cells) by mIFN-β. L929 cells were seeded at 5×10^5 cells in 6 well plates and stimulated with increasing amounts of purified recombinant mIFN-β protein. Four hours after treatment the cells were harvested, RNA isolated, and Mx1 RNA quantitated by TaqMan analysis. Mx1 RNA expression is plotted as the fold increase relative to GAPDH RNA.
A quantitative PCR/RT-PCR assay was developed to quantitate the levels of Mx1 mRNA in murine PBMC's. Specifically, peripheral blood mononuclear cells (PBMCs) were isolated from mice treated with either mIFN-β protein or following gene-based delivery of the mIFN-β gene. Blood samples obtained from treated mice were centrifuged on a ficoll cushion for 25 minutes at 2,000 rpm. Purified PBMCs were pelleted and RNA for the Mx1 assay was purified using the “RNAeasy” mini extraction kit from Qiagen. The RNA was stored in H2O at −80° C. Mx1 RT-PCR was performed using TaqMan® chemistry and analysis was done on the Applied Biosystems (ABI) PRISM® 7700 Sequence Detection instrument. For reverse transcription of the RNA and amplification of cDNA, the “One-step TaqMan® RNA” kit from ABI was used. […] The samples were analyzed with an Mx1-specific probe/primer combination. Mx1 expression was normalized to GAPDH expression measured in parallel using a standard assay from ABI. […]

For the next experiment, the system named is IP-10. The experiment in a line: IP-10 plasma level after bolus mIFN-β protein (ELISA). It counts as in vivo, C57BL/6 mice. As to the method:
(§1) C57BL/6 mice were administered 15, 150, or 500 ng of purified recombinant mIFN-β protein (specific activity=2.0×10^8 units/mg) by either i.v. (via tail vein) or i.m. injection (n=3 mice per group). The mice were bled at 2, 4, 6, 12, 24, and 48 hours post-injection, and the plasma levels of IP-10 and JE were measured by ELISA (R&D Systems).

The test system of a further experiment is Mx1 RNA. Nature of the experiment: Mx1 RNA induction in PBMCs after bolus injection of mIFN-β protein. It counts as in vivo, C57BL/6 mice. As to the method:
FIG. 6 illustrates Mx1 RNA induction following i.v. (A) or i.m. injection (B) of mIFN-β protein. C57BL/6 mice were administered 15, 150, or 500 ng of purified recombinant mIFN-β protein (specific activity-2.0×10^8 units/mg) by either i.v. (via tail vein) or i.m. injection (n=3 mice per group). At the specified time points post-injection mice were bled, and RNA was isolated from PBMCs. Mx1 RNA was measured by quantitative RT-PCR. The fold increase in Mx1 RNA is expressed relative to GAPDH values measured in the same samples. The controls include naive mice (N), and mice injected with the vehicle buffer only followed by Mx1 analysis at 2 hours (V2 h) or 4 h (V4 h) post-injection. Each column represents the mean value +/− standard deviation.
A quantitative PCR/RT-PCR assay was developed to quantitate the levels of Mx1 mRNA in murine PBMC's. Specifically, peripheral blood mononuclear cells (PBMCs) were isolated from mice treated with either mIFN-β protein or following gene-based delivery of the mIFN-β gene. Blood samples obtained from treated mice were centrifuged on a ficoll cushion for 25 minutes at 2,000 rpm. Purified PBMCs were pelleted and RNA for the Mx1 assay was purified using the “RNAeasy” mini extraction kit from Qiagen. The RNA was stored in H2O at −80° C. Mx1 RT-PCR was performed using TaqMan® chemistry and analysis was done on the Applied Biosystems (ABI) PRISM® 7700 Sequence Detection instrument. For reverse transcription of the RNA and amplification of cDNA, the “One-step TaqMan® RNA” kit from ABI was used. RNA was reverse transcribed for 30 minutes at 48° C. and the amplification was done in 40 cycles with a denaturation step at 95° C. for 30 seconds, and an annealing/elongation step at 60° C. for 1 minute. The samples were analyzed with an Mx1-specific probe/primer combination. Mx1 expression was normalized to GAPDH expression measured in parallel using a standard assay from ABI.
B. Bolus Injection of mIFN-β Protein Induces Transient Biomarker Response In Vivo: The biomarker response after bolus injection of purified recombinant mIFN-β was measured in these studies. […] The highest Mx1 expression levels were measured 2 hours after injection. […] At the 500 ng dose there was a diminished level of Mx1 RNA induction. This saturating effect has been observed in other studies in which high IFN-β levels lead to an apparent down-regulation of the bioresponse, perhaps due to down regulation of the IFN type I receptor (see e.g., Mager, D E and Jusko, W J (2002) Pharm Res 19:1537-43). Mx1 RNA expression in the i.v. injected mice also peaked at approximately 2 hours post-injection and dropped rapidly thereafter.
This is the first time that the expression of Mx1 RNA has been used as a biomarker to follow the activity of mIFN-β in mice. […] However, the upregulation is short term and rapidly drops from high expression levels to background within 12-24 hours.

Another experiment relates to acute EAE in SJL mice. Nature of the experiment: Mouse acute EAE model, gene-based delivery of mIFN-β. It counts as in vivo. Conditions: 100,000 Units s.c. every other day.
In the next experiment the test system is JE. Nature of the experiment: JE plasma level after bolus mIFN-β protein (ELISA). Format: in vivo, C57BL/6 mice. As to the method:
as §1
In general terms: An ELISA detects its analyte on a solid surface through an enzyme-linked reagent.

Take “mIFN-β: purified recombinant murine interferon-beta protein expressed in 293E cells”: in experiment [1], the “increase in the level of Mx1 RNA” value stood at 100 fold. For the same substance, the “EC50 of Mx1 RNA induction” value in experiment [1] (4 hours treatment) was “approximately 50 pg/ml”. Besides, the “time by which plasma IP-10 dropped to background” value with IP-10 (each of three doses) is no more than 24 h. Also, the “increase of IP-10 levels” value with IP-10 (high dose delivered i.v.) was found to be 3000 fold. Moreover, the “time of strong induction of IP-10 after administration” value in the experiment on IP-10 (i.v. or i.m.) worked out at 2 h. Also, the “induction of Mx1 RNA expression relative to vehicle injected mice” value in the experiment with Mx1 RNA (15, 150 or 500 ng, i.v. or i.m.) was 25- to 50 fold. In addition, the “time within which Mx1 upregulation drops to background” value in the experiment with Mx1 RNA (bolus protein) is 12 to 24 h. The “time beyond which no Mx1 RNA levels above background were detected” value in the experiment with Mx1 RNA (i.m.) is no more than 12 h. For the same substance, in the experiment on Mx1 RNA (i.v.), the “dose giving the highest Mx1 induction” value came to 150 ng and the “time of peak Mx1 RNA expression post-injection” value was “approximately 2 hours”. In addition, in the experiment with Mx1 RNA (i.v. or i.m.), the “time of highest Mx1 expression levels after injection” value amounted to 2 h. Also, in the experiment on acute EAE in SJL mice, the “clinical scores compared to vehicle control” value was “significantly decreased clinical scores”. Also, the “time by which plasma JE dropped to background” value in the experiment with JE (each of three doses) was no more than 24 h. In the experiment on JE (i.v. or i.m.), the “time of strong induction of JE after administration” value was found to be 2 h.
